Measured values taken from paper PMC6300282, “Sulphamethazine derivatives as immunomodulating agents: New therapeutic strategies for inflammatory diseases” (PLoS ONE, 2018).
Where two headings read alike, the source gives them in different places.

Columns and labels:
MTT cytotoxicity assay = assay type: cell-based, mouse; conditions: mouse; MTT, 48 hours; read-out: Cytotoxicity NIH-3T3 cell line (IC50)
Procedure: The cytotoxicity was recorded as concentration causing 50% growth inhibition (IC50).

[1] = tested on: Bacillus subtilis (ATCC 6633); assay: Microplate Alamar Blue Assay, Bacillus subtilis; assay type: cell-based
Procedure: (§1) The anti-bacterial activity of synthesized compound were evaluated by the Microplate Alamar Blue Assay. Staphylococcus aureus (ATCC 25923), Pseudomonas aeruginosa(POA 286), Salmonella typhi (ATCC 14028), Bacillus subtilis ATCC 6633) and Escherichia coli (ATCC 12022) were used in this study as a standard bacterial strains and they were obtained from microbial bank of PCMD, International Center for Chemical and Biological Sciences, University of Karachi, Karachi-75270, Pakistan. The bacterial colonies grown in Trypton Soya Agar (TSA) (Oxoid Limited, UK) were inoculated in Mueller Hinton Broth (MHB) (Oxoid Limited, UK) and incubated overnight at 37 °C. Fully grown bacterial cultures were then diluted to adjust with 0.5 McFarland Turbidity Index (equivalent to 1.5 × 10^8 CFU/mL). Stock solutions (4 mg/mL) of different test compounds were prepared in DMSO and 10μL each of these stock solutions were placed in well of flat bottom, polystyrene, sterile 96-wells plate except the positive control wells (media + bacteria). This gives 200μg/mL concentrations of compounds in final 200 μL solution. Each compound was run in triplicates. Finally, bacterial suspension (5 x 10^6 CFU/mL) was added in each well. Plates were sealed by parafilm and incubated at 37 °C for 18–22 hrs. Next day, 20 μL of 0.02% resazurin sodium salt dye (Chem-Impex-Int’LInc) was added in each well and incubated in shaking incubator at 80 rpm, 37 °C for 2–3 hrs. The color change from blue to reddish pink indicates the growth of bacteria. For quantitative analysis, plates were read at 570 nm and 600 nm in Multiskan GOmicroplate spectrophotometer, (Thermo Scientific, USA). The % inhibition of bacterial growth was calculated using below mentioned formula.
(§2) For the calculation of the % difference in reduction between treated and control cells in cytotoxicity/proliferation assays: =(εOX)λ2Aλ1-(εOX)λ1Aλ2oftestagent/(εOX)λ2A°λ1-(εOX)λ1A°λ2ofpositivegrowthcontrol×100

[2] = tested on: Staphylococcus aureus (ATCC 25923); assay: Microplate Alamar Blue Assay, Staphylococcus aureus; assay type: cell-based; conditions: Staphylococcus aureus
Procedure: as §1, §2

[3] = tested on: Escherichia coli (ATCC 12022); assay: Microplate Alamar Blue Assay, Escherichia coli; assay type: cell-based
Procedure: as §1, §2

[4] = tested on: Pseudomonas aeruginosa (POA 286); assay: Microplate Alamar Blue Assay, Pseudomonas aeruginosa; assay type: cell-based; conditions: Pseudomonas aeruginosa, read-out: Percentage (%) Inhibition, Pseudomonas aerugenosa
Procedure: as §1, §2

[5] = tested on: Salmonella typhi (ATCC 14028); assay: Microplate Alamar Blue Assay, Salmonella typhi; assay type: cell-based; conditions: Salmonella enterica; 200 μg/mL; NI = No inhibition; read-out: Percentage (%) Inhibition, Slamonella typhi
Procedure: as §1, §2

[6] = ATCC6633, 200 μg/mL, NI = No inhibition, read-out: Percentage (%) Inhibition, Bacillus subtilis
[7] = ATCC25923, 200 μg/mL, NI = No inhibition, read-out: Percentage (%) Inhibition, Staphylococcus aureus
[8] = ATCC12022, 200 μg/mL, NI = No inhibition, read-out: Percentage (%) Inhibition, Escherichia coli

Row | SMILES | IC50 (MTT cytotoxicity assay) [µM] | inhibition at 200 µg/mL [1, 6] [%] | inhibition at 200 µg/mL [2, 7] [%] | inhibition at 200 µg/mL [3, 8] [%] | inhibition at 200 µg/mL ([4]; 200 μg/mL, NI = No inhibition) [%] | inhibition at 200 µg/mL [5] [%] | IC50 at 48 h (MTT cytotoxicity assay) [µM] | inhibition at 200 µg/mL ([1]; ATCC6633, read-out: Percentage (%) Inhibition, Bacillus subtilis) [%] | inhibition at 200 µg/mL ([2]; ATCC25923, read-out: Percentage (%) Inhibition, Staphylococcus aureus) [%] | inhibition at 200 µg/mL ([3]; ATCC12022, read-out: Percentage (%) Inhibition, Escherichia coli) [%] | inhibition at 200 µg/mL [4] [%]
1 | Cc1cc(C)nc(NS(=O)(=O)c2ccc(NC(=O)c3cccc(C(F)(F)F)c3F)cc2)n1 [Compound 14, N-(4-(N-(4,6-dimethylpyrimidin-2-yl)sulfamoyl)phenyl)-2-fluoro-3-(trifluoromethyl)benzamide] | > 30 | < 0 | 27.4 | < 0 | 1.04 | 25.4 | – | – | – | – | –
2 | Cc1cc(C)nc(NS(=O)(=O)c2ccc(NC(=O)c3cccc(F)c3)cc2)n1 [Compound 16, N-(4-(N-(4,6-dimethylpyrimidin-2-yl)sulfamoyl)phenyl)-3-fluorobenzamide] | > 30 | < 0 | 47.2 | < 0 | < 0 | 19.4 | – | – | – | – | –
3 | Cc1cc(C)nc(NS(=O)(=O)c2ccc(NC(=O)c3ccccc3F)cc2)n1 [Compound 17, N-(4-(N-(4,6-dimethylpyrimidin-2-yl)sulfamoyl)phenyl)-2-fluorobenzamide] | > 30 | < 0 | 24.3 | < 0 | < 0 | – | – | – | – | – | –
4 | Cc1cc(C)nc(NS(=O)(=O)c2ccc(NC(=O)c3ccc(F)c(F)c3)cc2)n1 [Compound 18, N-(4-(N-(4,6-dimethylpyrimidin-2-yl)sulfamoyl)phenyl)-3,4-difluorobenzamide] | > 30 | < 0 | 49.7 | < 0 | < 0 | 22.5 | – | – | – | – | –
5 | Cc1cc(C)nc(NS(=O)(=O)c2ccc(NC(=O)c3ccc(C(F)(F)F)cc3)cc2)n1 [Compound 19, N-(4-(N-(4,6-dimethylpyrimidin-2-yl)sulfamoyl)phenyl)-4-(trifluoromethyl)benzamide] | > 30 | < 0 | 49.4 | < 0 | 2.37 | 0.99 | – | – | – | – | –
6 | Cc1cc(C)nc(NS(=O)(=O)c2ccc(NC(=O)c3cccc(Cl)c3)cc2)n1 [Compound 21, 3-chloro-N-(4-(N-(4,6-dimethylpyrimidin-2-yl)sulfamoyl)phenyl)benzamide] | > 30 | < 0 | 54.6 | < 0 | 28 | 14.6 | – | – | – | – | –
7 | Cc1cc(C)nc(NS(=O)(=O)c2ccc(NC(=O)c3ccc(Cl)cc3)cc2)n1 [Compound 22, 4-chloro-N-(4-(N-(4,6-dimethylpyrimidin-2-yl)sulfamoyl)phenyl)benzamide] | > 30 | < 0 | 44.3 | < 0 | 9.78 | 11.6 | – | – | – | – | –
8 | Cc1cc(C)nc(NS(=O)(=O)c2ccc(NC(=O)c3cc(Cl)ccc3Cl)cc2)n1 [Compound 23, 2,5-dichloro-N-(4-(N-(4,6-dimethylpyrimidin-2-yl)sulfamoyl)phenyl)benzamide] | > 30 | < 0 | 5.76 | < 0 | 1.54 | < 0 | – | – | – | – | –
9 | Cc1cc(C)nc(NS(=O)(=O)c2ccc(NC(=O)c3ccc([N+](=O)[O-])cc3)cc2)n1 [Compound 25, N-(4-(N-(4,6-dimethylpyrimidin-2-yl)sulfamoyl)phenyl)-4-nitrobenzamide] | > 30 | < 0 | 17.5 | 1.21 | 6.35 | 4.64 | – | – | – | – | –
10 | Cc1cc(C)nc(NS(=O)(=O)c2ccc(NC(=O)c3cc([N+](=O)[O-])cc([N+](=O)[O-])c3)cc2)n1 [Compound 26, N-(4-(N-(4,6-dimethylpyrimidin-2-yl)sulfamoyl)phenyl)-3,5-dinitrobenzamide] | – | – | – | – | – | < 0 | > 30 | < 0 | 34.7 | < 0 | < 0
11 | Cc1cc(C)nc(NS(=O)(=O)c2ccc(NC(=O)c3ccc([N+](=O)[O-])cc3Cl)cc2)n1 [Compound 27, 2-chloro-N-(4-(N-(4,6-dimethylpyrimidin-2-yl)sulfamoyl)phenyl)-4-nitrobenzamide] | > 30 | < 0 | 50.1 | < 0 | < 0 | 3.72 | – | – | – | – | –
12 | Cc1cc(C)nc(NS(=O)(=O)c2ccc(NC(=O)c3ccccc3Br)cc2)n1 [Compound 28, 2-Bromo-N-(4-(N-(4,6-dimethylpyrimidin-2-yl)sulfamoyl)phenyl)benzamide] | > 30 | < 0 | 58.5 | 4.65 | 3.99 | 11.1 | – | – | – | – | –
13 | Cc1cc(C)nc(NS(=O)(=O)c2ccc(NC(=O)c3ccc(Br)cc3)cc2)n1 [Compound 29, 4-Bromo-N-(4-(N-(4,6-dimethylpyrimidin-2-yl)sulfamoyl)phenyl)benzamide] | > 30 | < 0 | 52.3 | < 0 | 15 | 14.1 | – | – | – | – | –
14 | Cc1cc(C)nc(NS(=O)(=O)c2ccc(NC(=O)c3cccc(Br)c3)cc2)n1 [Compound 30, 3-Bromo-N-(4-(N-(4,6-dimethylpyrimidin-2-yl)sulfamoyl)phenyl)benzamide] | > 30 | < 0 | 34.2 | < 0 | < 0 | 4.26 | – | – | – | – | –
15 | Cc1cc(C)nc(NS(=O)(=O)c2ccc(NC(=O)c3cccc(I)c3)cc2)n1 [Compound 31, N-(4-(N-(4,6-dimethylpyrimidin-2-yl)sulfamoyl)phenyl)-3-iodobenzamide] | > 30 | < 0 | 13 | < 0 | < 0 | < 0 | – | – | – | – | –
16 | COc1cccc(C(=O)Nc2ccc(S(=O)(=O)Nc3nc(C)cc(C)n3)cc2)c1 [Compound 32, N-(4-(N-(4,6-dimethylpyrimidin-2-yl)sulfamoyl)phenyl)-3-methoxybenzamide] | > 30 | < 0 | 32.9 | < 0 | < 0 | 19 | – | – | – | – | –
17 | COc1cc(OC)cc(C(=O)Nc2ccc(S(=O)(=O)Nc3nc(C)cc(C)n3)cc2)c1 [Compound 33, N-(4-(N-(4,6-dimethylpyrimidin-2-yl)sulfamoyl)phenyl)-3,5-dimethoxybenzamide] | > 30 | < 0 | 31.3 | < 0 | < 0 | < 0 | – | – | – | – | –
18 | Cc1ccc(C(=O)Nc2ccc(S(=O)(=O)Nc3nc(C)cc(C)n3)cc2)cc1 [Compound 34, N-(4-(N-(4,6-dimethylpyrimidin-2-yl)sulfamoyl)phenyl)-4-methylbenzamide] | > 30 | < 0 | < 0 | < 0 | 15.4 | 0.65 | – | – | – | – | –
19 | CC1COc2c(N3CCN(C)CC3)c(F)cc3c(=O)c(C(=O)O)cn1c23 (stereo not shown) [Ofloxacin, reference compound] | – | 93.8 | 94.1 | 94.4 | 94.1 | 89.8 | – | – | – | – | –
